Source: publication PMC7394103 (Frontiers in Pharmacology, 2020)
Where a name gives a salt, the structure may show the parent alone. Read-outs that look alike come from different tables or passages of the source.

Key:
[1] = parameters: method as in Plotnikov et al., 2020; conditions: rats, i.p.; ref Plotnikov et al., 2020; cited from earlier work
[2] = parameters: method as in Schepetkin et al., 2012; conditions: mice, 30 mg/kg i.p., serum; ref Schepetkin et al., 2012; cited from earlier work
[3] = test system: c-Jun phosphorylation in FLS; parameters: method as in Schepetkin et al., 2015; conditions: ref Schepetkin et al., 2015; cited from earlier work
CIA in DBA1/J mice = conditions: ref Schepetkin et al., 2015, cited from earlier work
[4] = test system: IL-6 secretion by synovial SW982 cells; test: IL-1β-induced IL-6 secretion by SW982 cells (ELISA); type: cell-based, human; conditions: Homo sapiens, SW982; shorter incubation period (12 h), TRYP absent; read-out: IC50, IL-1β-induced IL-6 secretion by SW982 cells
Description: FLS, HUVEC, SW982, and THP-1 cells were plated in 96 well plates (10^4 to 10^5 cells/well) for 48 h before treatment. At 2 days post-confluency, the cells were serum-starved and washed twice (with the exception of THP-1 cell, which were not washed) with FBS-free medium prior to the addition of test compounds. […] Culture supernatants were collected and stored at –80°C. The levels of MMP-1 and MMP-3 were determined in culture supernatants using commercially available ELISA kits according to the manufacturer’s instructions (R&D System, Minneapolis, MN, USA). IL-6 levels were also determined in the supernatants using a human IL-6 ELISA kit (BD Biosciences, San Jose, CA, USA).

In the case of `ON=C1c2ccccc2-c2nc3ccccc3nc21` [IQ-1S, 11H-indeno[1,2-b]quinoxalin-11-one oxime salt], the half-life in circulation [1] is given as 12 h, the “time of peak serum concentration” value [1] is given as 5 min and the AUC 0–12 h [2] is given as 7.4 µM·h. The c-Jun phosphorylation [3] was “inhibited c-Jun phosphorylation”, the “reduction of arthritis in the CIA model” value (CIA in DBA1/J mice; 5 mg/kg i.p.) was “not very effective” and the “reduction of arthritis in the CIA model” value (CIA in DBA1/J mice; 30 and 50 mg/kg i.p.) was “equally effective”.

In the case of `O=C1c2ccccc2-c2nc3ccccc3nc21` [IQ-18], the “anti-inflammatory activity or therapeutic effects in CIA” value (CIA in DBA1/J mice; 2012, Schepetkin et al.) is listed as “did not have any anti-inflammatory activity or therapeutic effects in CIA”.

Work on `Oc1c2ccccc2c2c3c(cccc13)N=N2` [SP600125, reference compound] yielded an IC50 [4] of 1300 ± 500 nM.
